Read-outs that look alike come from different tables or passages of the source.
Assays:
[1] = tested on: Sprague-Dawley rats; experiment: Rat forced swim test 24 hours after administration; assay type: in vivo; details: 10 mg/kg, p.o., 24 hours before test, p<0.05
Protocol: This study aimed to evaluate the duration of the antidepressant-like effects of Form II of Compound (I) using the forced swim test in male, Sprague-Dawley rats. Clinically effective antidepressant compounds reduce immobility time and increase swimming in rodents subjected to this test. Rats received Compound (I) (10 mg/kg, p.o.) or ketamine (10 mg/kg, i.p.) and 24 hours later were subjected to testing. […] The data represent mean±SEM.

[2] = tested on: Sprague-Dawley rats; experiment: Acute depression model, forced swim test; assay type: in vivo, rat; details: for RO: corresponding to plasma level; for ED50: Rattus norvegicus
Protocol: (§1) Young, adult, male Sprague-Dawley rats were randomly assigned across the treatment groups and were administered vehicle (0.5% MC/0.02% SLS), the reference compound desipramine (20 mg/kg; a tricyclic antidepressant; Sigma, Lot #078K1326) dissolved in sterile water, or crystalline Form II of Compound (I) (0.1, 0.3, 1, 3, 10, and 30 mg/kg) suspended in 0.5% MC/0.02% SLS, twice on Day 1 (after habituation; ˜24 h prior to test, and prior to dark cycle) and once on Day 2 (30 min pre-test for desipramine and 45 min pre-test for Form II and vehicle).
(§2) Each Forced Swim chamber was constructed of clear acrylic (height, 40 cm; diameter, 20.3 cm). Rats were subjected to a pre-dose swim test of one 15-min session in cylinders containing water at 23° C.±1° C., followed approximately 24 h later by the experimental 5-min session. The water level was 16 cm deep during habituation and 30 cm deep during the test. Immobility, climbing, and swimming behaviors were recorded every 5 s for a total of 60 counts per subject. When an animal was unable to maintain a posture with its nose above water, it was immediately removed from the water and eliminated from the study. Blood was collected at the completion of swim test procedures and plasma was analyzed for Form II concentrations.

[3] = Acute depression model, forced swim test; assay type: in vivo, rat; details: male, Sprague-Dawley, rat, plasma, read-out: plasma level at time of sampling
Protocol: as §1, §2

[4] = tested on: dogs; experiment: Respiratory effects in anesthetized dogs, 5-min IV infusion; assay type: in vivo, dog; details: 3 mg/kg, monitored 60 min
Protocol: (§3) Respiratory effects were investigated in rats and dogs. […] Mean Form II plasma concentration was approximately 30 μM (10600 ng/mL) at the end of infusion and approximately 4 μM (1250 ng/mL) at 60 min post-infusion.

[5] = as above; assay type: in vivo, dog; details: dog, plasma, 3 mg/kg
Protocol: as §3

[6] = tested on: monkeys; experiment: Cardiovascular safety in conscious chair-restrained monkeys, single oral doses; assay type: in vivo, monkey
Protocol: (§4) The potential effects of Form II of Compound (I) on the functions of the nervous system, cardiovascular system, and respiratory system were evaluated in a battery of safety pharmacology studies that included an in vitro human ether-a-go-go-related gene (hERG) assay and in vivo studies in rats, dogs, and monkeys. CNS effects were tested in rats at single doses at 15, 75, and 225 mg/kg.
(§5) Effects of Form II on the cardiovascular system were tested in several studies. Potential QTc effects were tested in vitro and in vivo.
(§6) Hemodynamic effects were tested in dogs and monkeys. […] However, Form II did produce dose-independent increases in systolic (12-15 mm Hg), diastolic (7-10 mm Hg), and mean arterial pressures (9-12 mm Hg) in conscious, chair-restrained monkeys given single oral doses at 15, 75, or 150 mg/kg and monitored for 6 h post-dose.

[7] = as above; assay type: in vivo, monkey; details: monkey, plasma
Protocol: as §4, §5, §6

[8] = 15, 75, or 150 mg/kg oral, dose-independent

Cc1ccc(COC(=O)N2CC[C@H](CNc3ncccn3)[C@H](F)C2)cc1 [Form II, 4-methylbenzyl (3S, 4R)-3-fluoro-4-[(pyrimidin-2-ylamino)methyl] piperidine-1-carboxylate]
immobility [1]: reduced immobility
swim time [1]: increased swim time significantly
RO ([2]; 0.1 mg/kg): approximately 5%
RO ([2]; 0.3 mg/kg): ~29%
RO ([2]; 1 mg/kg): ~56%
RO ([2]; 3 mg/kg): ~83%
RO ([2]; 10 mg/kg): ~94%
RO ([2]; 30 mg/kg): ~98%
climbing behavior ([2]; 1, 3, 10, and 30 mg/kg vs vehicle): did not affect climbing behavior except at the dose of 3 mg/kg
immobility frequency ([2]; 1, 3, 10, and 30 mg/kg vs vehicle, P<0.001): significantly decreased
swimming behavior ([2]; 1, 3, 10, and 30 mg/kg vs vehicle, P<0.01 (P<0.05 for 10 mg/kg)): significantly increased
ED50 ([2]; read-out: ED50 for decrease in immobility): ~0.7 mg/kg
ED50 ([2]; read-out: ED50 for increase in frequency of swimming): ~0.3 mg/kg
RO corresponding to ED50 for immobility ([2]; rat, in vivo): ~50%
RO corresponding to ED50 for swimming ([2]; rat, in vivo): ~30%
concentration at 50 min ([3]; 0.1 mg/kg): ~15 nM
concentration at 50 min ([3]; 0.3 mg/kg): ~120 nM
concentration at 50 min ([3]; 1 mg/kg): ~390 nM
concentration at 50 min ([3]; 3 mg/kg): ~1420 nM
concentration at 50 min ([3]; 10 mg/kg): ~4700 nM
concentration at 50 min ([3]; 30 mg/kg): ~14100 nM
respiratory parameters and blood pH, pCO2, pO2 [4]: did not affect
concentration at 60 min ([5]; read-out: mean plasma concentration at 60 min post-infusion): ~4 µM
concentration at 5 min ([5]; read-out: mean plasma concentration at the end of infusion): ~30 µM
heart rhythm and ECG parameters ([6]; 15, 75, and 150 mg/kg oral, monitored 6 h): did not affect
increase in diastolic pressure [6, 8]: 7-10 mm Hg
increase in mean arterial pressure [6, 8]: 9-12 mm Hg
increase in systolic pressure [6, 8]: 12-15 mm Hg
Cmax ([7]; 15 mg/kg oral): ~3 µM
Cmax ([7]; 75 mg/kg oral): ~9 µM
Cmax ([7]; 150 mg/kg oral): ~15 µM

— patent US12410153B2, “Compounds, compositions and methods” (Avalo Therapeutics, Inc., priority 2014, dated 2025)
